Laboratory results reported in ChEMBL document CHEMBL1833824, “Effects of cyclization on stability, structure, and activity of α-conotoxin RgIA at the α9α10 nicotinic acetylcholine receptor and GABA(B) receptor” (J Med Chem, 2011).
pEC50: −log10 of the molar value.

Test: Activation of human alpha-9/rat alpha-10 nACHR expressed in Xenopus oocytes assessed as increase of acetylcholine-induced current
Format: cell-based
Settings: Oocyte

Compound `CC(=O)OCC[N+](C)(C)C` [ACETYLCHOLINE] has a pEC50 of 4.30.
